Reference: article PMC12644484 (Scientific Reports, 2025)
Like-named read-outs stand apart in the source and are kept apart here.

Columns and labels:
RNaseH2 [1] = target: T1, RNaseH2 (Homo sapiens, UniProt O75792); conditions: read-out: RNaseH2 inhibition IC50, reported value; cited from earlier work
T1 construct: made in house; host or cells: E. coli BL21 (DE3) RIPL
T1 sequence (O75792 1-299): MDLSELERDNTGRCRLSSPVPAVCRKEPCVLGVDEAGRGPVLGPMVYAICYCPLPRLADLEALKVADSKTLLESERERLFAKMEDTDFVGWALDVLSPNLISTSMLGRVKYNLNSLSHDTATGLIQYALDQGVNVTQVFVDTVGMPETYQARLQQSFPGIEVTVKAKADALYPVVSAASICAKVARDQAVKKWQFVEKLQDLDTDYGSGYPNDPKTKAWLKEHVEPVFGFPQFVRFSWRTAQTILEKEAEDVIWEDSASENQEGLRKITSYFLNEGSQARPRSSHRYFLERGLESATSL
T1 sequence (Q5TBB1 1-312 partner): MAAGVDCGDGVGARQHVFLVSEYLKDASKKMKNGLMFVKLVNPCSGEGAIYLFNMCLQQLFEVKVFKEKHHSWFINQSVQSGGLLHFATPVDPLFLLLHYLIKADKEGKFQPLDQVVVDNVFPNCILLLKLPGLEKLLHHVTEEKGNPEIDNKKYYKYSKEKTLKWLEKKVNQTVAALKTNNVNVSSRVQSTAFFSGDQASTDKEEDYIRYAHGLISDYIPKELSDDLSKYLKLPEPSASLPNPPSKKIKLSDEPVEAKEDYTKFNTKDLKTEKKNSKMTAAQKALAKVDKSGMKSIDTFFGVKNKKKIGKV
T1 sequence (Q8TDP1 1-164 partner): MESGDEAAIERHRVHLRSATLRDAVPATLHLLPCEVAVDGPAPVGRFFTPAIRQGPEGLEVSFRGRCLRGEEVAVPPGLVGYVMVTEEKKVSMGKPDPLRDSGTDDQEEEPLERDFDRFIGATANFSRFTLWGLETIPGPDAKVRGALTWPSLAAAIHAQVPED

RNaseH2 [2] = target: T1, RNaseH2; experiment: Fluorogenic RNaseH2 activity assay (RNA/DNA hybrid substrate); format: biochemical; conditions: fluorescence assay, four-parameter logistic fit; read-out: RNaseH2 inhibition IC50
Protocol: Briefly, a biochemical activity assay was established employing a duplex RNA/DNA oligonucleotide containing an internally quenched fluorophore and a single ribonucleotide positioned so that RNaseH2-mediated incision would lead to dissociation and de-quenching. […] To identify inhibitors, we screened several compound libraries containing a total of 71394 chemical compounds (Fig. 1c).
(a) RNaseH2 activity assay. An 80 nM RNA/DNA hybrid substrate was incubated with the indicated concentrations of RNaseH2, and fluorescence was recorded over 45 minutes. Each data point represents the average of four technical replicates. (b) RNaseH2 inhibition. […] Each data point denotes the average (± SD) of two technical replicates and was fitted to a four-parameter logistic curve. (c) High-throughput screening for RNaseH2 inhibitors. Each symbol represents one technical replicate of 71394 screening compounds, 9495 DMSO solvent controls, and 3552 no-enzyme controls. […] (d) Z’-factor of high-throughput screening assay. […] (e) Hit validation experiments on six candidate RNaseH2 inhibitors. […]
RNaseH2 activity assay was performed at room temperature in 384-well plates (black OptiPlates, PerkinElmer). […] The samples were incubated at room temperature for 20–30 min, and fluorescence was recorded using a Tecan SPARK plate reader at an excitation wavelength of 610[10] nm and emission wavelength of 670[20] nm.

For `O=C(CSc1ncnc2sc3c(c12)CCCC3)NCc1ccco1` [RHI002, N-(2-Furanylmethyl)−2-[(5,6,7,8-tetrahydro[1]benzothieno[2,3-d]pyrimidin-4-yl)thio]-acetamide], which IC50 (RNaseH2 [1]) is on record?
The IC50 was 16 µM.

And the IC50 (RNaseH2 [2])?
The IC50 was 5.6 µM.
